Values after ≈ are worked out from the molar mass of the structure shown. Bridge positions count the residues as written; N and C are the ends. Peptide text beside a SMILES is read from it.
System: Human immunodeficiency virus
Assay: Antiviral activity against HIV infected in human MOLT4 cells assessed as inhibition of virus-induced cytopathic effect
Assay type: functional, organism-based
Conditions: Human immunodeficiency virus 1, MOLT-4

Compound | EC50
CC(C)[C@@H]1NC(=O)[C@H](CCCNC(=N)N)NC(=O)[C@H](Cc2ccccc2)NC(=O)[C@@H](NC(=O)[C@H](Cc2c[nH]c3ccccc23)NC(=O)[C@H](CCCNC(=N)N)NC(=O)[C@@H](N)CCCNC(=N)N)CSSC[C@@H]2NC(=O)[C@H](Cc3ccccc3)NC(=O)CNC(=O)[C@H](CCCCN)NC(=O)[C@H](Cc3ccc(O)cc3)NC(=O)[C@H](CSSC[C@@H](C(=O)N[C@@H](CCCNC(=N)N)C(N)=O)NC(=O)[C@H](CCCCN)NC(=O)[C@H](CCCNC(=N)N)NC(=O)[C@H](Cc3ccc(O)cc3)NC2=O)NC1=O [POLYPHEMUSIN II] (H-RRWCFRVCYKGFCYRKCR-NH2; disulfide 4-13, 8-17) | 8 ng/mL (≈ 3.3 nM)

System: Human immunodeficiency virus 1
Assay: Antiviral activity against HIV1
Assay type: functional, organism-based
Conditions: not given

Compound | EC50
CC[C@H](C)[C@@H]1NC(=O)[C@@H]2CSSC[C@@H]3NC(=O)[C@H](C(C)C)NC(=O)[C@H](CCCCN)NC(=O)[C@H](CC(N)=O)NC(=O)[C@H](CCCCN)NC(=O)[C@@H]4CSSC[C@H](NC(=O)[C@H](CO)NC(=O)[C@H](CCC(=O)O)NC(=O)CNC(=O)[C@H](CSSC[C@H](NC(=O)CNC(=O)[C@H](CC(C)C)NC(=O)[C@H](C)NC(=O)[C@H](C)NC(=O)[C@H](CO)NC1=O)C(=O)N[C@@H](CO)C(=O)N4)NC(=O)[C@@H]1CCCN1C(=O)[C@H]([C@@H](C)CC)NC(=O)CNC(=O)[C@H](CC(N)=O)NC(=O)[C@H](CCCNC(=N)N)NC(=O)[C@H](Cc1ccc(O)cc1)NC3=O)C(=O)N[C@@H](C(C)C)C(=O)N[C@@H](Cc1c[nH]c3ccccc13)C(=O)N[C@@H]([C@@H](C)CC)C(=O)N1CCC[C@H]1C(=O)N2 [CIRCULIN A] (cyclo(AALGCSCKNKVCYRNGIPCGESCVWIPCIS); disulfide 5-19, 7-23, 12-28) | 0.04 µM
CC[C@H](C)[C@@H]1NC(=O)[C@@H]2CSSC[C@@H]3NC(=O)[C@H](C(C)C)NC(=O)[C@H](CCCCN)NC(=O)[C@H](CC(N)=O)NC(=O)[C@H](CCCCN)NC(=O)[C@@H]4CSSC[C@H](NC(=O)[C@H](CO)NC(=O)[C@H](CCC(=O)O)NC(=O)CNC(=O)[C@H](CSSC[C@H](NC(=O)CNC(=O)[C@H](CC(C)C)NC(=O)[C@H](CC(C)C)NC(=O)[C@H]([C@@H](C)O)NC(=O)[C@H](CO)NC1=O)C(=O)N[C@@H](CO)C(=O)N4)NC(=O)[C@@H]1CCCN1C(=O)[C@H]([C@@H](C)CC)NC(=O)[C@H](C(C)C)NC(=O)CNC(=O)[C@H](CC(N)=O)NC(=O)[C@H](CCCNC(=N)N)NC(=O)[C@H](Cc1ccc(O)cc1)NC3=O)C(=O)N[C@@H](C(C)C)C(=O)N[C@@H](Cc1ccccc1)C(=O)N[C@@H]([C@@H](C)CC)C(=O)N1CCC[C@H]1C(=O)N2 [CIRCULIN B] (cyclo(CGESCVFIPCISTLLGCSCKNKVCYRNGVIP); disulfide 1-17, 5-19, 10-24) | 0.04 µM
CC[C@H](C)[C@@H]1NC(=O)[C@@H]2CSSC[C@@H]3NC(=O)[C@H](C(C)C)NC(=O)[C@H](CCCCN)NC(=O)[C@H](CO)NC(=O)[C@H](CCCCN)NC(=O)[C@@H]4CSSC[C@H](NC(=O)[C@H](CO)NC(=O)[C@H](CCC(=O)O)NC(=O)CNC(=O)[C@H](CSSC[C@H](NC(=O)CNC(=O)[C@H](C)NC(=O)[C@H](C(C)C)NC(=O)[C@H](CO)NC(=O)[C@H]([C@@H](C)O)NC1=O)C(=O)N[C@@H](CO)C(=O)N4)NC(=O)[C@@H]1CCCN1C(=O)[C@H]([C@@H](C)CC)NC(=O)CNC(=O)[C@H](CC(N)=O)NC(=O)[C@H](CCCNC(=N)N)NC(=O)[C@H](Cc1ccc(O)cc1)NC3=O)C(=O)N[C@@H](C(C)C)C(=O)N[C@@H](Cc1ccccc1)C(=O)N[C@@H]([C@@H](C)CC)C(=O)N1CCC[C@H]1C(=O)N2 [CIRCULIN C] (cyclo(AGCSCKSKVCYRNGIPCGESCVFIPCITSV); disulfide 3-17, 5-21, 10-26) | 0.04 µM
CC[C@H](C)[C@@H]1NC(=O)[C@H](CO)NC(=O)[C@H]([C@@H](C)O)NC(=O)[C@H](Cc2ccc(O)cc2)NC(=O)[C@@H]2CSSC[C@@H]3NC(=O)[C@H](C(C)C)NC(=O)[C@H](CCCCN)NC(=O)[C@H](CC(N)=O)NC(=O)[C@H](CCC(=O)O)NC(=O)[C@@H]4CSSC[C@H](NC(=O)[C@H](CO)NC(=O)[C@H](CCC(=O)O)NC(=O)CNC(=O)[C@H](CSSC[C@H](NC(=O)[C@H](CC(N)=O)NC(=O)[C@H](Cc5ccccc5)NC1=O)C(=O)N[C@@H](CCCCN)C(=O)N4)NC(=O)[C@@H]1CCCN1C(=O)[C@H]([C@@H](C)CC)NC(=O)[C@H](CCCCN)NC(=O)[C@H](CC(=O)O)NC(=O)[C@H](Cc1cnc[nH]1)NC(=O)[C@H](Cc1ccc(O)cc1)NC3=O)C(=O)N[C@@H](C(C)C)C(=O)N[C@@H](Cc1c[nH]c3ccccc13)C(=O)N[C@@H]([C@@H](C)CC)C(=O)N1CCC[C@H]1C(=O)N2 [CIRCULIN D] (cyclo(CENKVCYHDKIPCGESCVWIPCYTSIFNCK); disulfide 1-17, 6-22, 13-29) | 0.04 µM
CC[C@H](C)[C@@H]1NC(=O)[C@H](CCCCN)NC(=O)[C@H](CC(=O)O)NC(=O)[C@H](Cc2cnc[nH]2)NC(=O)[C@H](Cc2ccc(O)cc2)NC(=O)[C@@H]2CSSC[C@@H]3NC(=O)[C@@H]4CCCN4C(=O)[C@H]([C@@H](C)CC)NC(=O)[C@H](Cc4c[nH]c5ccccc45)NC(=O)[C@H](C(C)C)NC(=O)[C@@H]4CSSC[C@H](NC(=O)[C@H](CCCCN)NC(=O)[C@H](CSSC[C@H](NC(=O)[C@@H]5CCCN5C1=O)C(=O)NCC(=O)N[C@@H](CCC(=O)O)C(=O)N[C@@H](CO)C(=O)N4)NC(=O)[C@H](CC(N)=O)NC(=O)[C@H](Cc1ccccc1)NC(=O)[C@H](C(C)C)NC(=O)[C@H](CO)NC(=O)[C@H]([C@@H](C)O)NC(=O)[C@H](CC(C)C)NC3=O)C(=O)N[C@@H](CCC(=O)O)C(=O)N[C@@H](CC(N)=O)C(=O)N[C@@H](CCCCN)C(=O)N[C@@H](C(C)C)C(=O)N2 [CIRCULIN E] (cyclo(CENKVCYHDKIPCGESCVWIPCLTSVFNCK); disulfide 1-17, 6-22, 13-29) | 0.04 µM
CC[C@H](C)[C@@H]1NC(=O)[C@H](C)NC(=O)[C@H](C)NC(=O)[C@H](CO)NC(=O)[C@H]([C@@H](C)CC)NC(=O)[C@@H]2CSSC[C@@H]3NC(=O)[C@H](C(C)C)NC(=O)[C@H](CCCCN)NC(=O)[C@H](CC(N)=O)NC(=O)[C@H](CCCCN)NC(=O)[C@@H]4CSSC[C@H](NC(=O)[C@H](CO)NC(=O)[C@H](CCC(=O)O)NC(=O)CNC(=O)[C@H](CSSC[C@H](NC(=O)CNC1=O)C(=O)N[C@@H](CO)C(=O)N4)NC(=O)[C@@H]1CCCN1C(=O)[C@H]([C@@H](C)CC)NC(=O)[C@H](C)NC(=O)[C@H](CCCNC(=N)N)NC(=O)[C@H](Cc1ccc(O)cc1)NC3=O)C(=O)N[C@@H](C(C)C)C(=O)N[C@@H](Cc1c[nH]c3ccccc13)C(=O)N[C@@H]([C@@H](C)CC)C(=O)N1CCC[C@H]1C(=O)N2 [CIRCULIN F] (cyclo(AAIGCSCKNKVCYRAIPCGESCVWIPCIS); disulfide 5-18, 7-22, 12-27) | 0.04 µM

— ChEMBL document CHEMBL1137808, “Biologically active proteins from natural product extracts” (J Nat Prod, 2001)
